Experimental data from patent US12546785B2, “IL-17F and IL-17A-specific capture agents, compositions, and methods of using and making” (Regeneron Pharmaceuticals, Inc., priority 2017, dated 2026).
Blank lines part the entries; values can stand above or below the compound they belong to. Numbered stars: 1 amine (or outer) side, 2 acyl side, 3 side chain; on linkers, the order of the positions; unused ones are H or OH. Bridge positions count the residues as written; N and C are the ends. Square brackets hold non-standard residues; d marks the D form. Triazole bridges read from a SMILES are 1,4-linked. Peptide text beside a SMILES is read from it. * marks the point of attachment. ξ: configuration not given here. Biotinyl(3aR,4R,6aS) = O=C1N[C@@H]2[C@@H](CS[C@@H]2CCCCC(=O)*)N1; Biotin = O=C1N[C@H]2[C@H](CS[C@H]2CCCCC(=O)*)N1; dLys(N3) = [N-]=[N+]=NCCCC[C@@H](N)C(=O)O; Lys(N3) = [N-]=[N+]=NCCCC[C@H](N)C(=O)O; Ethylenediamine = C(CN[*:2])N[*:1]; PEG5 = NCCOCCOCCOCCOCCOCCC(=O)O; ξY = NC(Cc1ccc(O)cc1)C(=O)O; AEEEA = NCCOCCOCCOCC(=O)O; ξR = N=C(N)NCCCC(N)C(=O)O; Pra = C#CC[C@H](N)C(=O)O; ξPra = C#CCC(N)C(=O)O; ξK = NCCCCC(N)C(=O)O; PEG1 = NCCOCCC(=O)O

How the values were obtained:
[1] = target: T1, recombinant human IL-17A protein (Homo sapiens, UniProt Q16552); test: ELISA affinity against IL-17A; assay type: binding
T1 construct: His tag
T1 sequence (Q16552 24-155): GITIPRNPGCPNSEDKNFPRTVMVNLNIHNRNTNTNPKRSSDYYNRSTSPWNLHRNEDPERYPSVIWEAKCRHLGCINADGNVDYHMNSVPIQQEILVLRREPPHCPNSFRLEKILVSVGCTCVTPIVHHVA
Procedure: The affinity of macrocycle LA3 (SEQ ID NO:44) against recombinant human IL-17A protein was determined by ELISA.

[2] = target: Plasmodium falciparum Histidine Rich Protein-2 (Pf.HRP-2) (Plasmodium falciparum, UniProt P05227); test: biochemical; assay type: binding

- EC50 [1]: 4.5 ± 0.4 nM
Structure (SMILES): CC(C)C[C@H]1NC(=O)[C@@H](CCCNC(=N)N)NC(=O)[C@@H](Cc2ccccc2)NC(=O)[C@@H](Cc2c[nH]cn2)NC(=O)[C@@H](CCCNC(=N)N)NC(=O)[C@@H](NC(=O)COCCOCCOCCNC(=O)CCCC[C@@H]2SC[C@@H]3NC(=O)N[C@@H]32)Cc2cn(nn2)CCCC[C@@H](C(N)=O)NC1=O [LA3] ({Biotin-AEEEA}-[Pra][dR][dH][dF][dR][dL][Lys(N3)]-NH2; triazole 1-7)

Structure (SMILES): CC(C)C[C@@H]1NC(=O)[C@H](CC(=O)O)NC(=O)[C@H](C(C)C)NC(=O)[C@H](CC(N)=O)NC(=O)[C@H](Cc2c[nH]c3ccccc23)NC(=O)CNC(=O)[C@](C)(NC(=O)[C@@H](N)CCCNC(=N)N)CCCCCC/C=C/CCC[C@@](C)(C(=O)N[C@@H](CCCCNC(=O)CCCC[C@@H]2SC[C@@H]3NC(=O)N[C@@H]32)C(=O)N[C@@H](CNC(=O)Cn2nncc2C[C@H](N)C(=O)N2CCC[C@@H]2C(=O)NCC(=O)N[C@H](CC(C)C)C(=O)N[C@H](CC(C)C)C(=O)N[C@H]2Cc3cn(nn3)CCCC[C@@H](C(N)=O)NC(=O)[C@H](CCCNC(=N)N)NC(=O)[C@H](Cc3ccc(O)cc3)NC(=O)[C@H](Cc3ccc(O)cc3)NC(=O)[C@H](CCCCN)NC(=O)[C@H](Cc3ccc(O)cc3)NC2=O)C(N)=O)NC1=O [cy(YKYYR)-linker-cy(GWNVDL)]
- improvement over the better of the two ligand components ([2]; Pf.HRP-2): 100 fold

Structure (SMILES): N=C(N)NCCCC1NC(=O)[C@@H](Cc2ccc(O)cc2)NC(=O)[C@@H](Cc2ccc(O)cc2)NC(=O)C(CCCCN)NC(=O)C(Cc2ccc(O)cc2)NC(=O)C(N)Cc2cn(nn2)CCCC[C@H](C(=O)NCCOCCC(=O)NC2Cc3cn(nn3)CCCC[C@H](C(=O)NCCOCCOCCOCCOCCOCCC(=O)NCCNC(=O)CCCC[C@H]3SC[C@H]4NC(=O)N[C@H]43)NC(=O)C(CCCNC(=N)N)NC(=O)[C@@H](Cc3ccc(O)cc3)NC(=O)[C@@H](Cc3ccc(O)cc3)NC(=O)C(CCCCN)NC(=O)C(Cc3ccc(O)cc3)NC2=O)NC1=O (stereo partly drawn) [linked biligand] (H-[ξPra][ξY][ξK][dY][dY][ξR][dLys(N3)][PEG1][ξPra][ξY][ξK][dY][dY][ξR][dLys(N3)][PEG5]-{Ethylenediamine-Biotinyl(3aR,4R,6aS)}; triazole 1-7, 9-15)
- EC50 [2]: 20.8 ± 1.3 nM
